Literature values in patent US20040053391A1, “Renal cell carcinoma-antigen G250-derived peptides that elicit both CD4+ and CD8+ T-cell responses” (Katholieke Universiteit Nijmegen, priority 2002, published 2004).

System: CD8+CTL's
Settings: HLA-A2.1; Vissers et al. 1999, WO 01/98363

In the case of “G250 amino acid sequence from 254 to 262: previously identified HLA-A2.1-restricted CTL epitope of G250, comprised within 249-268 (HLSTAFARV; UniProt Q16790 254-262, looked up, fragment)”, the CTL epitope character is listed as “HLA-A2.1-restricted CTL epitope that is both naturally processed and immunogenic”.
